The source of these data is article PMC8074287, “Analgesic and Anticancer Activity of Benzoxazole Clubbed 2-Pyrrolidinones as Novel Inhibitors of Monoacylglycerol Lipase” (Molecules, 2021).

“Also recorded” adds a separate entry of the source.

As a reminder, the IC50 is the concentration that inhibits the measured activity by half.

Assay [1] has as its system formalin-induced nociception. As to the kind of experiment: Formalin-induced analgesic (nociception) test. Type of assay: in vivo, Male Wistar rats. The text has this: The formalin-induced analgesic test is an extensively acknowledged animal nociception model. In order to evaluate both central and peripheral effects of the compound (20), formalin-induced nociception model was selected for analgesic activity. The formalin induced behavioral response comprises two typical phases, stage I and II. Stage I persists up to five minutes after formalin injection and is characterized by acute pain with vigorous licking and biting of the injected site. Stage I consists the action formalin on afferent C-fiber nociceptors. While Stage II starts 10–30 min after formalin injection and persists till 60 min, characterized by periodic licking and biting of the injected site. Stage II imitates the action of central sensitization of the spinal dorsal horn neurons.
Figure 5 Formalin-induced analgesic test; a dose of the test compound 20 (5, 10, 30, and 50 mg/kg, p.o, suspended in 0.5% CMC) was administered 4 h before formalin injection (50 µL, 2.5%). Reference drug, gabapentin (100 mg/kg, i.p, dissolved in 0.9% normal saline) was injected 30 min before formalin injection. Total paw licking and biting duration, Stage I (white bar, 0–5 min) and stage II (black bar, 10–30 min) was recorded as a measure of pain behavior. Data is represented as mean ± SEM from a group of 10 animals. * p < 0.05, ** p < 0.01, p > 0.05 (NS, nonsignificant) vs. control (vehicle). GBP: Gabapentin; D5, D10, D30, andD50 are the dose concentrations of test compound 20.
Male Wistar rats (180–200 g) were obtained with the permission of IAEC (proposal number 1048) from Jamia Hamdard, New Delhi, India. The results of test compound 20 and reference drug, Gabapentin (GBP), were statistically compared with the control group.

The next assay has as its system OVCAR-8. Kind of assay: NCI60 single-dose SRB assay. The class given is cell-based, human. Conditions: OVCAR-8, Ovarian Cancer, 10 μM. The method, then:
Compounds 19 and 20 were supplied to National Cancer Institute (USA), for sulforhodamine B (SRB) assay and anticancer screening. Single-dose (10 µM) assay results for compounds 19 and 20 were provided as a mean of percent growth (% G) and growth inhibition (% GI) against 60 cell lines of nine types of cancers and are tabulated in Table 4. […] Both the compounds 19 and 20 were also found active on UO-31 renal cancer cell line with % GI of 21.18 and 29.95, respectively.
Compounds 19 and 20 were supplied to National Cancer Institute (Bethesda, Maryland, USA), for in vitro sulforhodamine B (SRB) assay, anticancer screening on 60 cell lines of cancers of leukemia, melanoma, and tumors of the kidney, brain, breast, lung, colon, ovary, and prostate, as per their standard protocol. One dose anticancer results (NCI, USA) of compounds 19 and 20 are provided in the Supplementary Materials.

The next assay concerns the target T1, hMAGL (Homo sapiens, UniProt Q99685).
T1 sequence (Q99685 1-303): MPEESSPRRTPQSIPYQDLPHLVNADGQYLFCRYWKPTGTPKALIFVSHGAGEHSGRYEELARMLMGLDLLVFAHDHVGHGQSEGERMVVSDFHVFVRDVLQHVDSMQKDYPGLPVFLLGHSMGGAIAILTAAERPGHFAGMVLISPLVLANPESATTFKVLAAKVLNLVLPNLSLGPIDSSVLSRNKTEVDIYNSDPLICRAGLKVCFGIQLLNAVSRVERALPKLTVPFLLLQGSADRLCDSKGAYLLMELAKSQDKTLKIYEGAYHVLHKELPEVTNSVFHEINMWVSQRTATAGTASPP
Kind of assay: Human MAGL inhibition assay (Cayman's assay kit).

Consider `NS(=O)(=O)c1ccc(N2CC(c3nc4ccccc4o3)CC2=O)cc1` (centres unmarked) [Compound 20, 4-(4-(Benzo[d]oxazol-2-yl)-2-oxopyrrolidin-1-yl)benzenesulfonamide], for which, in assay [1] (5, 10, 30, and 50 mg/kg p.o., 4 h prior to formalin injection), the “pain response in acute (Stage I) and late (Stage II) phases” value was “reduced the pain response in acute and late stages in a dose-dependent manner; also recorded: reduced the pain response significantly both in acute (Stage I) and late (Stage II) phases, in a dose-dependent manner; also recorded: reduced the pain response significantly both in acute (stage I) and late (stage II) phases in a dose-dependent manner”. In addition, the “reduction in pain response compared with positive control GBP” value in assay [1] (at 30 mg/kg p.o., GBP 100 mg/kg i.p.) is on record as “better potency than the positive control gabapentin (GBP)”. In the assay on OVCAR-8, the “% G” value is recorded as 97.49% and the “% GI” value came to 2.51%. Besides, on hMAGL, the concentration for half-maximal inhibition (IC50) was determined as 7.6 ± 0.8 nM.

Take `O=C1CC(c2nc3ccccc3o2)CN1c1ccc([N+](=O)[O-])cc1` (centres unmarked) [Compound 19, 4-(Benzo[d]oxazol-2-yl)-1-(4-nitrophenyl)pyrrolidin-2-one]: in the assay with OVCAR-8, the “% G” value stood at 101.95% and the “% GI” value was −1.95%. At hMAGL, this molecule came in with an IC50 of 8.4 ± 1.9 nM.
